Consider 2 compounds from ChEMBL document CHEMBL3352118, “Inhibitors of Mutant IDH for the Treatment of Cancer” (ACS Med Chem Lett, 2014).

What is called IC50 is the concentration that inhibits the measured activity by half. Lower therefore signals higher potency.

The test addresses Isocitrate dehydrogenase [NADP] cytoplasmic (Homo sapiens, UniProt O75874, R132H). Briefly: Inhibition of IDH1 R132H mutant (unknown origin) using a-ketoglutarate as substrate by fluorescence biochemical assay.

SMILES strings stand for the structures.

Sequence of Isocitrate dehydrogenase [NADP] cytoplasmic (O75874 2-414 R132H limits assumed): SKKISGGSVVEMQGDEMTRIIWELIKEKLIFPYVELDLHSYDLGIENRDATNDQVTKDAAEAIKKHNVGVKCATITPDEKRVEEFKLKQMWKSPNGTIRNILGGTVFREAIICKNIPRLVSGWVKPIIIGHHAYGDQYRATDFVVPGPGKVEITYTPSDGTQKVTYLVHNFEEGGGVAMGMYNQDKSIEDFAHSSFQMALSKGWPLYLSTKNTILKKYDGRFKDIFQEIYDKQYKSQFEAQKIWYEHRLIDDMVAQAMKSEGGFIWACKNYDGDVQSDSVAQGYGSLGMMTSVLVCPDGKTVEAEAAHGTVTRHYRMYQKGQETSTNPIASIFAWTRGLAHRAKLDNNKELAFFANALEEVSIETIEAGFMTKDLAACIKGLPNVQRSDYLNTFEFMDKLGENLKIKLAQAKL

On to `C[C@H](Nc1nccc(N2C(=O)OC[C@]2(C)C2CC2)n1)c1ccc(CN2CCC(O)(C(F)(F)F)CC2)cc1F`, for which the IC50 was < 0.0159 µM. `C[C@H](Nc1nccc(N2C(=O)OC[C@]2(C)C2CC2)n1)c1ccc(CN2CCC(N)CC2)c(F)c1`: the half-inhibitory concentration (IC50) came out at 0.194 µM.
